Reference: article PMC10839966, “Identification and evaluation of small-molecule inhibitors against the dNTPase SAMHD1 via a comprehensive screening funnel” (iScience, 2024)
Entries after “also recorded” stand apart in the source; their conditions may differ. Like-named read-outs stand apart in the source and are kept apart here.

Assays:
recombinant SAMHD1 [1] = biological target: T1, recombinant SAMHD1 (Homo sapiens, UniProt Q9Y3Z3); assay: Enzyme-coupled malachite green assay, SAMHD1 in vitro activity (dGTP, ara-CTP, Cl-F-ara-ATP substrates); assay type: biochemical
T1 construct: His-tag (N); made in house; host or cells: E. coli BL21 (DE3)
T1 sequence (Q9Y3Z3 whole entry): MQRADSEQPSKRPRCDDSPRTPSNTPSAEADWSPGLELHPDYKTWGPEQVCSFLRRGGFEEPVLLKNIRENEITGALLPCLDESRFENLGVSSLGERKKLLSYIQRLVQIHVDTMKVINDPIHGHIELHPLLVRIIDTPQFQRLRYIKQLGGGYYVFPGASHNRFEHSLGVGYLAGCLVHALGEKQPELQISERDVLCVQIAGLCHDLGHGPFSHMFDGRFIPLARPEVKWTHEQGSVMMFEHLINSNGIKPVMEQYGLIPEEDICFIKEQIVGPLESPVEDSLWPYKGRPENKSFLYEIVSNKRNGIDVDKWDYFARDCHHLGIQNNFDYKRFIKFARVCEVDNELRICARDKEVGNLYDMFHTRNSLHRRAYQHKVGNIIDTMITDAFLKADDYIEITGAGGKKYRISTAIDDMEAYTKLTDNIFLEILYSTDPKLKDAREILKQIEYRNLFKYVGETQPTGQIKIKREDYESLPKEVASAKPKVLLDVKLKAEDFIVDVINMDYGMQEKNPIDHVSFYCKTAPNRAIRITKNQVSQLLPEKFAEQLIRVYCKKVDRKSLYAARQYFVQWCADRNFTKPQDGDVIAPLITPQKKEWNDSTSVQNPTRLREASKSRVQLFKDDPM

[2] = test system: recombinant MTH1, dCTPase, dUTPase, ITPase, NUDT5, NUDT12, NUDT15 and NUDT22; assay: Compound selectivity, enzyme-coupled MG assays against panel of nucleoside pyro-/tri-phosphatases; assay type: biochemical, human; details: assayed up to 100 μM
recombinant SAMHD1 [3] = biological target: T1, recombinant SAMHD1; assay: Kinetic study, enzyme-coupled MG assay with matrix of inhibitors and dGTP; assay type: biochemical; details: inhibitor 0.03-20 μM added before dGTP 6.25-200 μM
recombinant SAMHD1 [4] = biological target: T1, recombinant SAMHD1; assay: B4NPP direct SAMHD1 enzymatic assay; assay type: biochemical; details: for Inhibition of SAMHD1 activity against B4NPP (in words): 2 mM B4NPP
recombinant SAMHD1 [5] = biological target: T1, recombinant SAMHD1; assay: Differential scanning fluorometry (DSF); assay type: binding; details: for Effect on SAMHD1 thermal stability / Tm1: absence of nucleotides, up to 200 μM (0.2–[…]); for Effect on GTP-induced SAMHD1 dimerization (Tm1 transition): order-of-addition, 0.1 mM TH6342, 0.5 mM TH7127 pre-incubated before low GTP, TH7126 before or after GTP
recombinant SAMHD1 [6] = biological target: T1, recombinant SAMHD1; assay: Dynamic light scattering (DLS), SAMHD1 particle size; details: 1 mM compound, 1 mM GTP
recombinant SAMHD1 [7] = biological target: T1, recombinant SAMHD1; assay: In vitro chemical crosslinking (glutaraldehyde), SAMHD1 multimers; details: 1.875 mM glutaraldehyde, GTP 0-5 mM
[8] = test system: T2, cellular SAMHD1 in THP-1 cell lysate; assay: Drug affinity responsive target stability (DARTS) on THP-1 cell lysates; assay type: binding, Human; details: 100 μM compound or 5 mM dGTP
T2 construct: lysate from THP-1 cells expressing endogenous wild-type SAMHD1; endogenous in cells; host or cells: THP-1

[9] = test system: T3, wild-type SAMHD1 in THP-1 cell lysates; assay: CETSA using THP-1 cell lysates, wild-type SAMHD1; assay type: binding, Human
T3 construct: lysate from THP-1 cells expressing endogenous wild-type SAMHD1; endogenous in cells; host or cells: THP-1

SAMHD1^Y146S/Y154S = test system: T4, SAMHD1^Y146S/Y154S; assay: CETSA using lysates of SAMHD1−/− THP-1 cells with rescue expression of dimerization-defective variant; assay type: binding, Human; details: versus DMSO, full melt curves, 100 μM
T4 construct: expressed in transfected cells; host or cells: SAMHD1-/- THP-1 cell clone

[10] = test system: T5, cellular SAMHD1 in intact THP-1 cells; assay: CETSA using intact THP-1 cells; assay type: cell-based, Human; details: 100 μM inhibitors or 10 mM thymidine, 2 h; isothermal at 53°C for inhibitors
T5 construct: lysate from THP-1 cells expressing endogenous wild-type SAMHD1; endogenous in cells; host or cells: THP-1

[11] = substrate Cl-F-ara-ATP 50 μM with GTP 12.5 μM as activator, read-out: IC50 (μM) Cl-F-ara-ATP
[12] = substrate ara-CTP 200 μM with dGTPαS 3.125 μM as activator, read-out: IC50 (μM) araCTP
[13] = substrate dGTP 25 μM, read-out: IC50 (μM) dGTP

SMILES | IC50 (recombinant SAMHD1 [1]; [11]) | IC50 (recombinant SAMHD1 [1]; [12]) | IC50 (recombinant SAMHD1 [1]; [13]) | Selectivity for SAMHD1 versus panel of nucleotide phosphatases [2] | Inhibition of SAMHD1 activity against B4NPP (in words) (recombinant SAMHD1 [4]; Mn2+) | Effect on reaction kinetics / Hill coefficient (Hn) (recombinant SAMHD1 [3]) | Effect on SAMHD1 thermal stability / Tm1 (recombinant SAMHD1 [5]) | Effect on GTP-induced SAMHD1 dimerization (Tm1 transition) (recombinant SAMHD1 [5]) | SAMHD1 stability to pronase treatment [8] | further results
Nc1nc2c(ncn2[C@H]2C[C@H](O)[C@@H](COP(=O)(O)OP(=O)(O)OP(=O)(O)O)O2)c(=O)[nH]1 [dGTP, reference compound] |  |  |  |  |  |  |  |  | substantially stabilized SAMHD1 | SAMHD1 stabilization against heat, cell lysate ([9]; 100 μM inhibitors or 5 mM dGTP, isothermal at 45°C for inhibitors): substantially stabilized SAMHD1
Nc1nc2c(ncn2[C@H]2C[C@H](O)[C@@H](COP(O)(=S)OP(=O)(O)OP(=O)(O)O)O2)c(=O)[nH]1 (stereo partly drawn) [dGTPαS, reference compound] |  |  |  |  |  |  |  |  |  | Tm3 (recombinant SAMHD1 [5]; SAMHD1 melting temperature with dGTPαS up to 1 mM): ~70 °C
Cc1cn([C@H]2C[C@H](O)[C@@H](CO)O2)c(=O)[nH]c1=O [thymidine, Thymidine] |  |  |  |  |  |  |  |  |  | SAMHD1 stabilization against heat, intact cells [10]: substantially stabilized SAMHD1

More lines, main results first:

IC50 (recombinant SAMHD1 [1]; [11]) | IC50 (recombinant SAMHD1 [1]; [12]) | IC50 (recombinant SAMHD1 [1]; [13]) | Selectivity for SAMHD1 versus panel of nucleotide phosphatases [2] | Inhibition of SAMHD1 activity against B4NPP (in words) (recombinant SAMHD1 [4]; Mn2+) | SMILES | Effect on reaction kinetics / Hill coefficient (Hn) (recombinant SAMHD1 [3]) | Effect on SAMHD1 thermal stability / Tm1 (recombinant SAMHD1 [5]) | Effect on GTP-induced SAMHD1 dimerization (Tm1 transition) (recombinant SAMHD1 [5]) | SAMHD1 stability to pronase treatment [8] | further results
5.8 µM | 11 µM | 9.1 µM | selectively inhibited SAMHD1 | retained their inhibitory activities | Clc1ccccc1-c1cn2ccnc2c(NCCc2ccccn2)n1 [TH6342, 6-(2-chlorophenyl)-N-(2-(pyridin-2-yl)ethyl)imidazo[1,2-a]pyrazin-8-amine] | significantly increased hill coefficients | small concentration-dependent reduction in Tm1 | the allosteric activator was not able to fully remove the Tm1 transition | Neither TH6342 nor TH7127 in cell lysates altered SAMHD1 stability to pronase treatment | Effect on thermal stability of nucleotide-bound SAMHD1 (recombinant SAMHD1 [5]; 0.5 mM compound added after GTP at 5 mM or dGTPαS at 1 mM): mildly destabilized GTP-bound, but not dGTPαS-bound, SAMHD1 species; Effect on GTP-induced SAMHD1 dimerization (DLS) (recombinant SAMHD1 [6]): deterred GTP (1 mM)-induced SAMHD1 dimerization; Effect on GTP-induced SAMHD1 multimerization (crosslinking) (recombinant SAMHD1 [7]): deterred GTP-induced SAMHD1 multimerization; Aggregation temperature (Tagg) ± SE (°C) ([9]; Figure 7F, SAMHD1 Tagg summary, wild-type SAMHD1 lysate, 100 μM compound, DMSO 44.8 ± 0.6): 46.1 ± 0.4 °C; Increase of aggregation temperature (Tagg) (SAMHD1^Y146S/Y154S): ~1 °C
> 100 µM | > 100 µM | > 100 µM |  | minimal inhibition | Nc1ccccc1-c1cn2ccnc2c(NCCc2ccccn2)n1 [TH7126, 6-(2-aminophenyl)-N-(2-(pyridin-2-yl)ethyl)imidazo[1,2-a]pyrazin-8-amine] | did not alter the reaction kinetics | did not alter SAMHD1 thermal stability | did not disrupt SAMHD1 dimerization |  | Inhibition of SAMHD1 (in words) (recombinant SAMHD1 [1]; dGTP, ara-CTP and Cl-F-ara-ATP substrates): Neg. control; also recorded: minimal inhibition
4 µM | 4.5 µM | 4.9 µM | selectively inhibited SAMHD1 | retained their inhibitory activities | COc1ccccc1-c1cn2ccnc2c(NCCc2ccccn2)n1 [TH7127, 6-(2-methoxyphenyl)-N-(2-(pyridin-2-yl)ethyl)imidazo[1,2-a]pyrazin-8-amine] | significantly increased hill coefficients | small concentration-dependent reduction in Tm1 | the allosteric activator was not able to fully remove the Tm1 transition | Neither TH6342 nor TH7127 in cell lysates altered SAMHD1 stability to pronase treatment | Ki (recombinant SAMHD1 [4]; B4NPP substrate, Mn2+, global fit, mixed inhibition model): 20.1 µM; Mode of inhibition (recombinant SAMHD1 [4]; B4NPP substrate, global fitting): mixed mode of inhibition; alpha (α) (recombinant SAMHD1 [4]; B4NPP substrate, global fit, mixed inhibition model): 0.36
2.6 µM | 2.8 µM | 4.5 µM | selectively inhibited SAMHD1 | retained their inhibitory activities | c1ccc(CCNc2nc(-c3cccs3)cn3ccnc23)nc1 [TH7528, N-(2-(pyridin-2-yl)ethyl)-6-(thiophen-2-yl)imidazo[1,2-a]pyrazin-8-amine] | significantly increased hill coefficients | small concentration-dependent reduction in Tm1 |  |  | 
